According to article PMC12048435, “Multifunctional acyltransferases involved in the synthesis of triacylglycerol, fatty acid phytyl esters and plastoquinol esters in cyanobacteria” (Planta, 2025):

How the values were obtained:
slr2103 [1] = molecular target: T1, slr2103 (Synechocystis sp. PCC 6803, UniProt P73931); assay: feeding of E. coli cells expressing slr2103, acyl-DPQ product by LC-MS/MS; format: cell-based; conditions: supplied as decylplastoquinone (1500 nmol in 5 ml), reduced in cells; acyl donor from E. coli; 30 C, 3 h
T1 construct: cloned in pQE-80L, expressed in E. coli; intact cells fed with substrate
T1 sequence (P73931 1-294): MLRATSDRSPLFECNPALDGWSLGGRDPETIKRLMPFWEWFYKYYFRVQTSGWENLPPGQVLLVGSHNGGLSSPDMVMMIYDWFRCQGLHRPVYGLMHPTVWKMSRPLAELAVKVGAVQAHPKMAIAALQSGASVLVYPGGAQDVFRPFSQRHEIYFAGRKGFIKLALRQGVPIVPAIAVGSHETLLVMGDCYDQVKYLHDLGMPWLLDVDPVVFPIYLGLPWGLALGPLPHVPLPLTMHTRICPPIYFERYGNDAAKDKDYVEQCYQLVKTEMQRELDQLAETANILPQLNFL

A0918 = molecular target: T2, A0918 (Picosynechococcus sp. PCC 7002, UniProt B1XIY0); assay: in vitro acyltransferase assay with E. coli microsomal membranes, TAG product by MS; format: biochemical; conditions: 50 uM palmitoyl-CoA, 200 uM substrate, 20 mM MgCl2, 0.1% CHAPS, pH 7.4, 37 C, 20 min
T2 construct: gene plsC; amplified from genomic DNA, cloned in pQE-80L, expressed in E. coli; microsomal membrane fraction
T2 sequence (B1XIY0 1-291): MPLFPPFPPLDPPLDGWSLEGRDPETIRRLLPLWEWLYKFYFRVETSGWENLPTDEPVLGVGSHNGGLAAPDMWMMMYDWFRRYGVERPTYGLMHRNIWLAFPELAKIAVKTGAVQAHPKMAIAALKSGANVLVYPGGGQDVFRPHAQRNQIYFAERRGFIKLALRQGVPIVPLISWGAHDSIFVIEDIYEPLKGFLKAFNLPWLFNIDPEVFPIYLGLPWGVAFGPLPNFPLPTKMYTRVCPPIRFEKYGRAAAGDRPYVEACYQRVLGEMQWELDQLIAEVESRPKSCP

slr2103 [2] = molecular target: T1, slr2103; assay: feeding of E. coli cells expressing slr2103, TAG product by MS; format: cell-based; conditions: 1500 nmol substrate in 5 ml; acyl donor from E. coli; 30 C, 3 h

Compound | feeding of E. coli cells expressing slr2103, acyl-DPQ product by LC-MS/MS (slr2103 [1]) | in vitro acyltransferase assay with E. coli microsomal membranes, TAG product by (A0918) | feeding of E. coli cells expressing slr2103, TAG product by MS (slr2103 [2])
CCCCCCCCCCc1cc(O)c(C)c(C)c1O [DPQ, decylplastoquinol] | slr2103 is capable of acylating one of the quinol hydroxyl groups of DPQ |  | 
CCCCCCCC(=O)OCC(CO)OC(=O)CCCCCCC (stereo not drawn) [dioctanoin] |  | confirming that A0918 harbors acyltransferase activity for the synthesis of TAG and FAPE | Accumulation of TAG after supplementation of E. coli cells expressing slr2103 with dioctanoin
